Test results published in the supplement of paper PMC11061612.

What was measured:
[1] = system: KY821 (Acute Myeloid Leukemia); assay: Bliss excess, mean over the matrix (fraction); higher = more synergy
Method in brief: (§1)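 Cell lines in DMEM/F12 or RPMI with 10% FBS were plated in 1536-well plates, held 24 hours at 37°C, 5% CO2, then given two-drug dose matrices for 72 hours (DMSO typically 0.2%). Viability was read by CellTiter-Glo 2.0 luminescence and scaled as inhibition from 0 (vehicle wells) to 1 (blank wells). Combination Emax is the second-highest inhibition in the matrix; Bliss excess is observed combination effect minus expected EA + EB − EA·EB, EA and EB being single-agent effects.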

[2] = system: SNU-398 (Hepatocellular Carcinoma); assay: as above
Method in brief: as §1

[3] = system: KP-3 (Pancreatic Carcinoma); assay: as above
Method in brief: as §1

[4] = system: NCI-H2731 (Mesothelioma); assay: as above
Method in brief: as §1

[5] = system: ESO51 (Esophageal Adenocarcinoma); assay: as above
Method in brief: as §1

[6] = system: NCI-H661 (Non-Small Cell Lung Carcinoma); assay: as above
Method in brief: as §1

[7] = system: SJSA-1 (Osteosarcoma); assay: as above
Method in brief: as §1

[8] = system: KMS-12-BM (Plasma Cell Myeloma); assay: as above
Method in brief: as §1

[9] = system: NCI-H520 (Squamous Cell Lung Carcinoma); assay: as above
Method in brief: as §1

[10] = system: G-361 (Melanoma); assay: as above
Method in brief: as §1

[11] = system: SU-DHL-5 (B-Cell Non-Hodgkin's Lymphoma); assay: as above
Method in brief: as §1

[12] = system: MOLM-13 (Acute Myeloid Leukemia); assay: as above
Method in brief: as §1

[13] = system: RPMI-8226 (Plasma Cell Myeloma); assay: as above
Method in brief: as §1

[14] = system: T-T (Esophageal Squamous Cell Carcinoma); assay: as above
Method in brief: as §1

[15] = system: NCI-H929 (Plasma Cell Myeloma); assay: as above
Method in brief: as §1

[16] = system: M059J (Glioblastoma); assay: as above
Method in brief: as §1

[17] = system: JHH-4 (Hepatocellular Carcinoma); assay: as above
Method in brief: as §1

[18] = system: COR-L279 (Small Cell Lung Carcinoma); assay: as above
Method in brief: as §1

[19] = system: 8505C (Thyroid Gland Carcinoma); assay: as above
Method in brief: as §1

[20] = system: ST486 (Burkitt's Lymphoma); assay: combination Emax (second highest fraction inhibited in the dose matrix, 72 h); higher = more inhibition; extreme values may be limits of the assay
Method in brief: as §1
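Throughout, for Bliss excess, mean over the matrix: after 72 h of two-drug dosing.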

SMILES	Bliss excess [1]	Bliss excess [2]	Bliss excess [3]	Bliss excess [4]	Bliss excess [5]	Bliss excess [6]	Bliss excess [7]	Bliss excess [8]	Bliss excess [9]	Bliss excess [10]	Bliss excess [11]	Bliss excess [12]	Bliss excess [13]	Bliss excess [14]	Bliss excess [15]	Bliss excess [16]	Bliss excess [17]	Bliss excess [18]	Bliss excess [19]	combination Emax [20]
CN(CCO)CC[C@H](CSc1ccccc1)Nc1ccc(S(=O)(=O)NC(=O)c2ccc(N3CCC([C@@H](O)c4ccccc4-c4ccc(Cl)cc4)CC3)cc2)cc1S(=O)(=O)C(F)(F)F [AZD4320] + C1CN(CCC1(C(=O)N[C@@H](CCO)C2=CC=C(C=C2)Cl)N)C3=NC=NC4=C3C=CN4 [Capivasertib] (first compound max 1 µM, 7x7, partner max 3 µM)	0.0157	-0.032	-0.0438	-0.0435	-0.0434	-0.0347	0.0243	0.0181	-0.0637	-0.0244	0.0065	-0.0169	0.0027	-0.0171	-0.0088	-0.0113	-0.0411	0.0721	-0.155	0.881
CN(CCO)CC[C@H](CSc1ccccc1)Nc1ccc(S(=O)(=O)NC(=O)c2ccc(N3CCC([C@@H](O)c4ccccc4-c4ccc(Cl)cc4)CC3)cc2)cc1S(=O)(=O)C(F)(F)F [AZD4320] + C=CCn1c(=O)c2cnc(Nc3ccc(N4CCN(C)CC4)cc3)nc2n1-c1cccc(C(C)(C)O)n1 [AZD1775] (first compound max 1 µM, partner max 1 µM)	-0.0117	-0.0291	-0.0417	-0.0106	0.0693	-0.0018	-0.0545	0.0716	-0.0444	0.0539	0.0007	0.0252	0.0467	0.0409	-0.0219	0.0448	-0.0041	0.0798	0.0033	1
CN(CCO)CC[C@H](CSc1ccccc1)Nc1ccc(S(=O)(=O)NC(=O)c2ccc(N3CCC([C@@H](O)c4ccccc4-c4ccc(Cl)cc4)CC3)cc2)cc1S(=O)(=O)C(F)(F)F [AZD4320] + CCN(CCO)CCCOc1ccc2c(Nc3cc(CC(=O)Nc4cccc(F)c4)[nH]n3)ncnc2c1 [AZD2811] (first compound max 1 µM, 7x7, partner max 1 µM)	0.162	-0.0135	-0.0476	-0.005	0.0025	-0.0322	-0.0059	0.0816	0.0077	0.0679	-0.143	0.0171	0.0003	0.01	-0.0119	-0.004	-0.0226	0.051	0.0545	0.979
CN(CCO)CC[C@H](CSc1ccccc1)Nc1ccc(S(=O)(=O)NC(=O)c2ccc(N3CCC([C@@H](O)c4ccccc4-c4ccc(Cl)cc4)CC3)cc2)cc1S(=O)(=O)C(F)(F)F [AZD4320] + CN(C)CCCOc1ccc(-c2ccc3ncc4c(c3c2)n(C2CCOCC2)c(=O)n4C)cn1 [AZD0156] (first compound max 1 µM, 7x7, partner max 1 µM)	0.002	-0.0009	-0.0462	-0.0485	-0.0095	-0.0232	0.0377	0.0211	-0.0185	0.001	-0.066	-0.0649	0.0137	-0.0047	-0.0267	0.0015	-0.016	0.0041	-0.0014	0.911
CN(CCO)CC[C@H](CSc1ccccc1)Nc1ccc(S(=O)(=O)NC(=O)c2ccc(N3CCC([C@@H](O)c4ccccc4-c4ccc(Cl)cc4)CC3)cc2)cc1S(=O)(=O)C(F)(F)F [AZD4320] + C[C@@H](Nc1cc(F)cc(F)c1)c1cc(C(=O)N(C)C)cc2c(=O)cc(N3CCOCC3)oc12 [AZD8186] (first compound max 1 µM, 7x7, partner max 3 µM)	0.0053	0.0201	0.0002	0.0288	0.0996	0.0424	-0.0489	0.0652	0.0618	0.027	0.0003	0.0619	0.0151	0.054	-0.0036	0.0316	0.0282	0.0217	0.0411	0.887
CN(CCO)CC[C@H](CSc1ccccc1)Nc1ccc(S(=O)(=O)NC(=O)c2ccc(N3CCC([C@@H](O)c4ccccc4-c4ccc(Cl)cc4)CC3)cc2)cc1S(=O)(=O)C(F)(F)F [AZD4320] + Cc1cc2ncnn2cc1Nc1ncc2c(n1)n(C1CCOCC1)c(=O)n2C [AZD7648] (first compound max 1 µM, 7x7, partner max 10 µM)	0.0393	-0.0291	-0.0471	-0.0424	-0.0168	-0.0289	-0.0406	0.0317	-0.0691	-0.0444	-0.0099	0.0157	0.0536	-0.0069	0.0134	-0.0258	-0.0356	-0.0057	-0.0315	0.959
CN(CCO)CC[C@H](CSc1ccccc1)Nc1ccc(S(=O)(=O)NC(=O)c2ccc(N3CCC([C@@H](O)c4ccccc4-c4ccc(Cl)cc4)CC3)cc2)cc1S(=O)(=O)C(F)(F)F [AZD4320] + Cn1cnc2c(F)c(Nc3ccc(Br)cc3Cl)c(C(=O)NOCCO)cc21 [Selumetinib] (first compound max 1 µM, 7x7, partner max 3 µM)	0.0262	0.0783	0.0111	-0.0124	0.0355	0.0414	0.0413	-0.024	-0.0205	0.028	0.0368	0.0296	0.0202	0.0564	0.0597	-0.0289	-0.0091	-0.0029	0.0641	0.866
COc1nnc2ccc(N3CCC(c4ccc(OCCN5CCN(C)C(=O)[C@H]5C)cc4)CC3)nn12 [AZD5153] + C=CCn1c(=O)c2cnc(Nc3ccc(N4CCN(C)CC4)cc3)nc2n1-c1cccc(C(C)(C)O)n1 [AZD1775] (first compound max 1 µM, partner max 1 µM)	-0.0266	-0.0315	0.0038	0.0147	-0.0594	-0.019	-0.0313	-0.0243	-0.0115	-0.0271	0.0156	-0.0225	-0.0059	-0.029	-0.0551	-0.106	0.0205	-0.0192	0.0074	0.985
COc1nnc2ccc(N3CCC(c4ccc(OCCN5CCN(C)C(=O)[C@H]5C)cc4)CC3)nn12 [AZD5153] + CC1(C)CCC(CN2CCN(c3ccc(C(=O)NS(=O)(=O)c4ccc(NCC5CCOCC5)c([N+](=O)[O-])c4)c(Oc4cnc5[nH]ccc5c4)c3)CC2)=C(c2ccc(Cl)cc2)C1 [Venetoclax] (first compound max 1 µM, 7x7, partner max 1 µM)	-0.0376	-0.126	-0.0399	-0.085	-0.0346	-0.0574	-0.0481	0.0033	-0.0179	-0.0649	-0.0107	0.0179	-0.0035	-0.0319	0.0001	-0.0124	-0.0442	-0.0945	-0.07	0.929
COc1nnc2ccc(N3CCC(c4ccc(OCCN5CCN(C)C(=O)[C@H]5C)cc4)CC3)nn12 [AZD5153] + CCN(CCO)CCCOc1ccc2c(Nc3cc(CC(=O)Nc4cccc(F)c4)[nH]n3)ncnc2c1 [AZD2811] (first compound max 1 µM, 7x7, partner max 1 µM)	0.0574	-0.0495	-0.0359	-0.0294	-0.0152	-0.0318	-0.0335	0.0641	0.0242	-0.0432	-0.0638	0.0176	-0.0116	-0.0284	-0.0026	-0.0225	-0.0334	-0.0201	0.03	0.936
COc1nnc2ccc(N3CCC(c4ccc(OCCN5CCN(C)C(=O)[C@H]5C)cc4)CC3)nn12 [AZD5153] + C[C@@H]1COCCN1C2=NC(=NC(=C2)C3(CC3)[S@](=N)(=O)C)C4=C5C=CNC5=NC=C4 [AZD6738] (first compound max 1 µM, 7x7, partner max 10 µM)	-0.0196	0.0758	0.0527	0.0266	-0.0476	0.0929	-0.0398	-0.0167	0.07	-0.0191	0.0107	-0.0068	-0.0505	-0.0179	-0.0817	-0.0647	0.134	-0.0233	0.0751	0.973
